From patent US7195892B2, “Acylase gene” (Kaneka Corporation, priority 2002, dated 2007)
Changes are numbered by the printed parent chain.

Columns and labels:
Assay type in all cases: biochemical
[1] = target: T1, Escherichia coli PenG amidase (Escherichia coli, UniProt P06875); assay: Amoxycillin synthetic activity inhibition by PAA and PXA; settings: for relative activity, amoxycillin synthesis amount with the substrate alone set at 100%: 30 mM KPB pH 6.0, 30° C., 1 hour; for inhibition of amoxycillin synthesis (in words): summary of Table 1
T1 construct: purchased Sigma
Protocol: (§1) To 200 μl of a substrate solution prepared by dissolving 6-APA and HPGOMe-HCl in 30 mM KPB (pH 6.0) at the concentration of 0.5%, 10 μl of the enzyme solution obtained in (Examination Example 1) was added. PAA was added to be 0.3% and PXA was added to be 0.35%, and the mixture was subjected to reaction while shaking at 30° C. for 1 hour. Then, 1N HCl was added in 1/20 amount of the substrate to terminate the reaction. The generated amoxycillin was detected using HPLC. The result showing relative activity for the respective enzymes with the amoxycillin synthesis amount reacted by the substrate alone being set at 100% is shown in Table 1.

[2] = tested on: Stenotrophomonas maltophilia KNK12A strain-derived β-lactam acylase; assay: as above; settings: for relative activity, amoxycillin synthesis amount with the substrate alone set at 100%: 30 mM KPB pH 6.0, 30° C., 1 hour; for inhibition of amoxycillin synthesis (in words): summary of Table 1
Protocol: as §1

[3] = Comparison of amoxycillin synthesis activity; settings: 0.5% 6-APA and HPGOMe-HCl, pH 6.0, 30° C., 0-120 minutes; FIG. 3
Protocol: Amoxycillin synthesis activities of the Stenotrophomonas maltophilia KNK12A strain-derived β-lactam acylase and the known Escherichia coli PenG amidase (Sigma) were compared. As an enzyme solution, the fraction obtained in (Example 8) (enzyme concentration: about 3.2 ng/10 μl) was used for the Stenotrophomonas maltophilia KNK12A strain-derived β-lactam acylase, and 100-fold diluted solution (10.2 munit/10 μl, enzyme concentration: about 3.5 ng/10 μl) was used for Escherichia coli PenG amidase.
To 200 μl of a substrate solution prepared by dissolving 6-APA and HPGOMe-HCl in 30 mM KPB (pH 6.0) at the concentration of 0.5%, 10 μl of the enzyme solution was added and the mixture was subjected to reaction while shaking at 30° C. After the lapse of 0, 5, 10, 15, 30, 45, 60, 75, 90, 105 and 120 minutes from the start of the reaction, 1N HCl was added in 1/20 amount of the substrate solution to terminate the reaction. The generated amoxycillin was detected using HPLC.

[4] = Decomposition activity of amoxycillin; settings: 0.5% amoxycillin, pH 6.0, 30° C., 1 hour; FIG. 4
Protocol: (§2) To 200 μl of a solution prepared by dissolving amoxycillin in 30 mM KPB (pH 6.0) at the concentration of 0.5%, 10 μl of the enzyme solution obtained in (Examination Example 1) was added. The mixture was subjected to reaction for 1 hour while shaking at 30° C., and 1N HCl was added in 1/20 amount of the substrate solution to terminate the reaction.
as §2, with “a liquid” for “a solution”, “reaction” for “reaction for 1 hour”, “30° C. for 1 hour,” for “30° C.,”, “and then” for “and”, “reaction. The remained amoxycillin was detected using HPLC.” for “reaction.”

[5] = Comparison of decomposition activity of HPGOMe; settings: 0.5% HPGOMe-HCl, pH 6.0, 30° C., 1 hour; FIG. 5
Protocol: To 200 μl of a liquid prepared by dissolving HPGOMe-HCl in 30 mM KPB (pH 6.0) at the concentration of 0.5%, 10μ of the enzyme solution obtained in (Examination Example 1) was added, and the mixture was subjected to reaction while shaking at 30° C. for 1 hour. Then, 1N HCl was added in 1/20 amount of the substrate solution to terminate the reaction. The remained HPGOMe was detected using HPLC.

[6] = Capability comparison examination of a mutant acylase; settings: compared with unmodified acylase
Protocol: A β-lactam acylase-producing strain pUCNTkmTn5-KNK-L/HB101 strain and 1 amino acid-substituted mutant β-lactam acylase-producing strain pUCNT-Tn5-MuKNK-L1/HB101 strain were inoculated in 10 ml of CM culture medium, and shaking culture was carried out at 37° C. overnight. Cells were recovered from 2 ml of the culture by centrifugation, and suspended in 30 mM KPB (pH 6.0). Then, 1 ml of a substrate (prepared by dissolving 0.5% HPGOMe-HCl and 0.5% 6-APA in 30 mM KPB and adjusted to pH 6.0) was mixed therewith, and the mixture was subjected to reaction at 30° C. After the lapse of 10, 20, 30, 60, 90 and 180 minutes from the start of the reaction, 1N HCl was added in 1/20 amount of the substrate solution to terminate the reaction. Then, the centrifuged supernatant was diluted to 25-fold with 30 mM KPB, and 10 μl thereof was analyzed by HPLC. The amoxycillin conversion efficiency comparison is shown in FIG. 6, and ester decomposition degree comparison of D-p-hydroxyphenylglycine methyl ester (HPGOMe) is shown in FIG. 7.

T1 sequence (P06875 290-846): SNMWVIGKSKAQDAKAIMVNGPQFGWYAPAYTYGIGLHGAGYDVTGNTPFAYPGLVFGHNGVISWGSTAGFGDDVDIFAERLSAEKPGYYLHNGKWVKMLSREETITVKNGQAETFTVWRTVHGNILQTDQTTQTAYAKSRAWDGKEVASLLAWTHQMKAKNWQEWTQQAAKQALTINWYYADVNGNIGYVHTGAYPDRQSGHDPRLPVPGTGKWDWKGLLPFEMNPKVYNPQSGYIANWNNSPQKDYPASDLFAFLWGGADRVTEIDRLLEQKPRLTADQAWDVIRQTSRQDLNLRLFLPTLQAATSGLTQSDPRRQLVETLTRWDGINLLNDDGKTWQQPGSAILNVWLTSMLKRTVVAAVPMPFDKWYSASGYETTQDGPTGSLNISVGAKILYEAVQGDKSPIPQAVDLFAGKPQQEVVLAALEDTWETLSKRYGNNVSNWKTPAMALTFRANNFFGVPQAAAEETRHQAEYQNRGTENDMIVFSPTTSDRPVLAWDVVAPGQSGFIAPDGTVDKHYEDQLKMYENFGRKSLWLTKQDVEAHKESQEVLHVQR
T1 sequence (P06875 27-235): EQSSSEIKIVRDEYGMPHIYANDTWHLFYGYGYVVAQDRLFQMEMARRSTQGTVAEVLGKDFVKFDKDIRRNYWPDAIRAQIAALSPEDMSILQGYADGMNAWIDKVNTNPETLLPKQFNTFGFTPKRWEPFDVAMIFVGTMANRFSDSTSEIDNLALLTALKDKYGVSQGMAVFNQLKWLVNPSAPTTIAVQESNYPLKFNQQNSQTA

O=C(O)Cc1ccccc1 [PAA, Phenylacetic Acid]
relative activity, amoxycillin synthesis amount with the substrate alone set at 100% ([1]; Substrate + 0.3% PAA): 0% | inhibition of amoxycillin synthesis (in words) [1]: inhibited | relative activity, amoxycillin synthesis amount with the substrate alone set at 100% ([2]; Substrate + 0.3% PAA): 107% | inhibition of amoxycillin synthesis (in words) [2]: not inhibited at all, or even in the case there is inhibition, it is slight

O=C(O)COc1ccccc1 [PXA, Phenoxyacetic Acid]
relative activity, amoxycillin synthesis amount with the substrate alone set at 100% ([1]; Substrate + 0.35% PXA): 0% | inhibition of amoxycillin synthesis (in words) [1]: inhibited | relative activity, amoxycillin synthesis amount with the substrate alone set at 100% ([2]; Substrate + 0.35% PXA): 76% | inhibition of amoxycillin synthesis (in words) [2]: not inhibited at all, or even in the case there is inhibition, it is slight

B1: Stenotrophomonas maltophilia KNK12A strain-derived β-lactam acylase: β-lactam acylase of Stenotrophomonas maltophilia KNK12A, amino acid sequence SEQ ID NO:2, about 70 kDa (protein, listed as Stenotrophomonas maltophilia)
chain: MHVRAVAVAIALSLSSTVLAADTPPMTPDISGKPFIAPDVGRDYDKRVVMVPMRDGTRLYTVIVVPKGAHNAPILLTRTPYDAAGRASRSDSPRMRDLLPQGDEVFVDGGYIRVFQDIRGKYGSEGDYVMTRPLRGPLNNTKVDHSTDAWDTIDWLVKHVPESNGKVGMLGSSYEGFTVVMALTDPHPALKVAAPQSPMVDGWMGDDWLNYGAFRQVNFNYFAMQTEKRGKGTPLPSLGYDDYSTFLRIGSAGDYARFTGVDQLTWWKKLVQHPAYDGFWQGQALDAVMAKTPLKVPTMWLQGLWDQEDMWGANHAYQAMEGRDTGNTHNYLVMGPWRHSQVNYTGNELGALKFEGDTALQFRRDVLKPFFDQYLVDGAPKADTPPVLIYNTGENHWDRLQGWPRSCDKGCTAASKPLYLRAGGKLAFQAPAAGEGDFEEYVSDPAKPVPFVPRPVRFGDRDMWTTWLVKDQRFVDGRPDVLTFITEPLAEPLRIGGAPVVHLQASTSGTDSDWVVKLIDVYPDQEASTPEMGGYELPVSLAIFRGRYRESFSDPKPLAANQVLPYRFDLPNANHVFQKGHRVMVQVQSSLFPLYDRNPQTYVPNIYLAKPGDYQKATQRVWHSAAQASYVDLPVY
amoxycillin synthesis conversion rate [3]: very high conversion rate as compared with Escherichia coli PenG amidase | amoxycillin decomposition speed [4]: slow | decomposition speed of HPGOMe [5]: faster than that of Escherichia coli PenG amidase

B2: mutant β-lactam acylase (protein, listed as Stenotrophomonas maltophilia)
chain: B1 chain with M204V
acylase activity ([6]; FIG. 6): enhanced | ester decomposition activity of the substrate HPGOMe ([6]; FIG. 7): reduced
